Assay results reported in publication PMC5004293, “Characterization of FRM-36143 as a new γ-secretase modulator for the potential treatment of familial Alzheimer’s disease” (Alzheimer's Research & Therapy, 2016).
“Also recorded” adds a separate entry of the source.

How the values were obtained:
γ-secretase [1] = test: Acute oral treatment of wild-type mice, brain Aβ peptides; type: in vivo, mouse
Experimental: For in vivo assessment of compound efficacy, brain tissue and cerebrospinal fluid (CSF) were collected, snap frozen in liquid nitrogen, and stored at −80 °C. Brain hemispheres were homogenized in 0.6 % diethylamine (DEA) in 50 mM NaCl containing protease inhibitor cocktail (cOmplete mini, EDTA-free, Roche) using sonication (Branson) at 23 % amplitude for 30 s. Homogenates were spun at 227,000 × g for 25 min at 4 °C. Supernatants were diluted fivefold in PBS-T (0.05 % Tween-20) containing 0.67 % BSA and added to the ELISA plate. For CSF, samples were diluted threefold in the PBS-T/BSA buffer. Detection was performed using the SuperSignal™ ELISA Femto substrate (Thermo Fisher), and luminescence was read on an EnVision plate reader (Perkin Elmer).
Mice and rats were maintained on 12/12 h light/dark cycle with food available ad libitum. Drug treatment was prepared in a vehicle of 1 % carboxymethylcellulose (CMC):Tween80 (99.5:0.5). Twelve-week-old wild-type male mice (129S6, Taconic Biosciences, Hudson, NY, USA) or rats (Wistar, Charles River Laboratories) were administered compound p.o. without prior fasting and euthanized by CO2 asphyxiation at specified times post-dosing. After extraction of the brain, the olfactory bulb and hindbrain were removed and the cerebral hemispheres separated (mice) or cut in 4 pieces (rats). The cerebellum was removed for bioanalysis of the compound. CSF was collected from the cisterna magna and blood from a cardiac puncture.

[2] = test system: γ-secretase with FAD PS1 mutations (H163R, M233L, R278I); test: HEK cells overexpressing APPsw with FAD PS1 mutations; type: cell-based, human
Experimental: (§1) Aβ peptide levels were quantified by sandwich ELISA using anti-Aβ38, anti-Aβ40, anti-Aβ42, (BioLegend, Dedham, MA, USA) or anti-Aβ37 for the capture and 4G8-horseradish peroxidase (HRP; BioLegend) for detection. When measuring Aβ37 and Aβ38, 4G8-HRP was added to the sample for overnight incubation, whereas it was added after the overnight incubation for 1 h for Aβ40 and Aβ42 measurements.
(§2) For cell-based assays, freshly collected samples of cultured cell supernatant were added to the plates and incubated at 4 °C for about 24 h. Detection was performed using SureBlue 3,3’,5,5’-tetramethylbenzidine (TMB) peroxidase substrate (KPL, Inc., Gaithersburg, MD, USA) and the plates read on a SpectraMax M5e microplate reader (Molecular Devices, Inc., Sunnyvale, CA, USA). GSM-treated samples were normalized to samples treated with DMSO alone (100 %) and 5 μM GSI, DAPT (0 %; Sigma-Aldrich). EC50 values were calculated from values reported as percentage of DMSO using nonlinear regression, based on a sigmoidal dose–response (variable slope) model.
(§3) The extractions were performed according to the methods described by Okochi et al.. Briefly, human embryonic kidney (HEK) cells stably expressing APPsw and PS1 derivatives were cultured to confluence in 10-cm dishes and the media replaced on the day of the experiment. Cells were treated with FRM-36143 in the presence of proteasome inhibitors (1 mM lactacystin, 100 nM MG262, and 1 mM epoxomicin) for 1 h. Conditioned media were collected and cells were washed with ice-cold PBS and then immediately boiled for 2 min. A monitoring peptide (IVTL) and protease inhibitors were then added to the boiled samples, which were sonicated for 5 s three times and centrifuged at 100,000 × g for 1 h. The resultant supernatants were precipitated with TCA on ice for 15 min, centrifuged at 100,000 × g for 1 h, and filtered before being subjected to LC-MS/MS analysis to measure the tri-, tetra-, and pentapeptides as described elsewhere.

γ-secretase [3] = target: T1, γ-secretase (Homo sapiens, UniProt P49768); test: Aβ in media and intracellular small peptides of HEK cells expressing APPsw and WT presenilin; type: cell-based; conditions: HEK APPsw, 1 μM
T1 construct: expressed in transfected cells; host or cells: HEK cells stably expressing APPsw and WT PS1
Experimental: as §1, §2
as §3, with “Cells were treated with FRM-36143 in the presence of proteasome inhibitors (1 mM lactacystin, 100 nM MG262, and 1 mM epoxomicin) for 1 h.” left out

[4] = WT mice, single oral dose 30 mg/kg, 6 h post-treatment
[5] = mice, time course 0.5-24 h, 30 mg/kg p.o.
[6] = mice, time course, 30 mg/kg p.o.

For `COc1nc(C2=NOC[C@H](c3cc4ccccc4o3)N2)ccc1-n1cnc(C)c1` [FRM-36143, (R)-5-(benzofuran-2-yl)-3-(6-methoxy-5-(4-methyl-1H-imidazol-1-yl)pyridin-2-yl)-5,6-dihydro-4H-1,2,4-oxadiazine], the “Brain Aβ37 increase vs vehicle” value (γ-secretase [1]; [4]) was 3.2 fold, the “Brain Aβ42 reduction vs vehicle” value (γ-secretase [1]; [4]) was 43% and the “Calculated AUC0→24h of brain Aβ40 reduction” value (γ-secretase [1]; mice, 30 mg/kg p.o.) was 31%. For the same molecule, the “Calculated AUC0→24h of brain Aβ42 reduction” value (γ-secretase [1]; mice, 30 mg/kg p.o.) was 34%, the “Peak reduction of brain Aβ40” value (γ-secretase [1]; [5]) was 40% and the “Peak reduction of brain Aβ42” value (γ-secretase [1]; [5]) was 45%. For the same molecule, the “Change of brain Aβ37 and Aβ38” value (γ-secretase [1]; mice, time course, 10 mg/kg p.o.) was “induced an increase in Aβ37 and Aβ38”, the “Reduction of brain Aβ40 and Aβ42” value (γ-secretase [1]; mice, time course, 10 mg/kg p.o., 10 mg/kg) was “did not reduce Aβ40 and Aβ42 to a great extent; also recorded: did not observe any efficacy” and the “Peak increase of brain Aβ37” value (γ-secretase [1]; [6]) was 3.1 fold. The “Peak increase of brain Aβ38” value (γ-secretase [1]; [6]) was 2 fold, the “Reversal of the effect of FAD PS1 mutations on APP processing” value ([2]; HEK APPsw with PS1 H163R, M233L or R278I, Aβ42:Aβ40, Aβ38:Aβ42, VVIA/VVIAT) was “able to reverse the effect of the mutations studied” and the “Aβ38:Aβ42 ratio (fourth cleavage step)” value ([2]; PS1 R278I mutant) was “significant increase”. For the same molecule, the “Aβ42:Aβ40 ratio” value ([2]; PS1 R278I mutant) was “remains unchanged”, the “Aβ42 concentration in the media” value (γ-secretase [3]; 2 h, DMSO 154 ± 2) was 105 ± 2 pM and the “Aβ38 concentration in the media” value (γ-secretase [3]; 2 h, DMSO 750 ± 62) was 1548 ± 39 pM. For the same molecule, the “Aβ40 concentration in the media” value (γ-secretase [3]; 2 h, DMSO 4021 ± 132) was 3477 ± 120 pM, the “Aβtotal concentration in the media (Aβ38 + Aβ40 + Aβ42)” value (γ-secretase [3]; 2 h, DMSO 4925 ± 185) was 5130 ± 92 pM and the “Intracellular production of small peptides VVIA and VVIAT (fourth cleavage step)” value (γ-secretase [3]; LC-MS/MS) was “increases the production of VVIA and VVIAT”.
